This note sets out measurements from patent US10689354B2, “Aminoazole derivative” (Teijin Pharma Limited, priority 2015, dated 2020).

The target of experiment [1] is T1, androgen receptor (AR-LBD) (Rattus norvegicus, UniProt P15207).
T1 construct: 5 μL of 2×AR-LBD/Fluoromone AL Red Complex contained in the kit; purchased Invitrogen
T1 sequence (P15207 651-882 limits assumed): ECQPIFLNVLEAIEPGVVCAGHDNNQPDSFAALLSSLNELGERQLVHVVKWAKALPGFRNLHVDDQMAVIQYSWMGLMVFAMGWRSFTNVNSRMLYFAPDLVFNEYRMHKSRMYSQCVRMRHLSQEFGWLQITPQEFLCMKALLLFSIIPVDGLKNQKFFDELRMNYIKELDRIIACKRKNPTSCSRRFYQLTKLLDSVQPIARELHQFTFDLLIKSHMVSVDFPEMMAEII
The experiment can be described thus: Evaluation of androgen receptor affinity (PolarScreen Androgen Receptor Competitor Assay Kit, Red; fluorescence polarization). The conditions noted are these: 22° C. for 5 hours, relative to binding rate of 1 μM DHT, read-out: AR affinity (pEC50) (converted). The method, boiled down:
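Duplicate wells; compound plus AR-LBD tracer complex incubated 22° C for 5 h, then FP measured. Effect compared with 1 μM DHT; 50%-effect concentration expressed as pEC50.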
Background: In fluorescence polarisation assays a small probe gives low polarisation when free and higher when bound to something large.

Experiment [2] addresses T2, human androgen receptor (Homo sapiens, UniProt P10275).
T2 construct: expressed in transfected cells; host or cells: HEK293
T2 sequence (P10275 1-920): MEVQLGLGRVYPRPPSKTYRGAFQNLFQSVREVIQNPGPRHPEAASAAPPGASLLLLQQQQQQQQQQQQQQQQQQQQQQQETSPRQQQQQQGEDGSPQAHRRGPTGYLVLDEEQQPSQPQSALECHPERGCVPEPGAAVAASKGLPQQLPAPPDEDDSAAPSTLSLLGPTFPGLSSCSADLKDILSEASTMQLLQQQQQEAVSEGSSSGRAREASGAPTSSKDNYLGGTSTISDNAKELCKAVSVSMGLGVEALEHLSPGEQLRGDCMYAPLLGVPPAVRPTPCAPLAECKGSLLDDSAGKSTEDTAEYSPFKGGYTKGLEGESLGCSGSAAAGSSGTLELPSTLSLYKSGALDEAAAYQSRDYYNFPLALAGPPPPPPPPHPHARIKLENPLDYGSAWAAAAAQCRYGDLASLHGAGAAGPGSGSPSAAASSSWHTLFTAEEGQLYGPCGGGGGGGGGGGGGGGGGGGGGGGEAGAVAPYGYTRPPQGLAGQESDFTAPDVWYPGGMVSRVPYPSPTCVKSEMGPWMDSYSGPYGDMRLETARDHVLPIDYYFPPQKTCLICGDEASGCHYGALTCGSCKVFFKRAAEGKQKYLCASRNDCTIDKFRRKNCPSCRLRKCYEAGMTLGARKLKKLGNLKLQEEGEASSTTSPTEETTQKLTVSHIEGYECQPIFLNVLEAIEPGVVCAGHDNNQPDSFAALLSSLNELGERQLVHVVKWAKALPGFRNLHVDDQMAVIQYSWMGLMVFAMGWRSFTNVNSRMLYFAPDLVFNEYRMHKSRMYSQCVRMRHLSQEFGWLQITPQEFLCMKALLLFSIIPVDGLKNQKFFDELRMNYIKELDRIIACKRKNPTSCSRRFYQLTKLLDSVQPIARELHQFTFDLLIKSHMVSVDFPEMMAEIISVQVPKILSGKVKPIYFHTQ
Kind of experiment: Reporter assay of an androgen receptor responsive sequence (luciferase, transiently transfected HEK293 cells). Format: cell-based. Particulars: 24 hours incubation, relative to activity of 100 nM DHT, read-out: AR transcriptive activity (pEC50) (converted). The method, boiled down:
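Agonism scored as pEC50, fitted by 4-parameter curve against the response to 100 nM DHT, from dual-luciferase readout after 24 h compound treatment. Cells were HEK293 co-transfected (3 h) with human AR expression vector, androgen-responsive firefly reporter and Renilla control, in charcoal-stripped serum.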
A general note: In a reporter assay the amount or activity of a reporter protein is the signal.

Consider `Cc1sc(N(Cc2ccnc(C(F)(F)F)c2)c2ccc(C#N)cc2)nc1C(=O)NS(C)(=O)=O` [Compound 538, 2-[4-cyano-N-[[2-(trifluoromethyl)-4-pyridyl]methyl]anilino]-5-methyl-N-methylsulfonyl-thiazole-4-carboxamide], for which the EC50 in experiment [1] is 398 nM; in experiment [2], 3980 nM.

Take `Cc1sc(N(Cc2ccc(Br)cn2)c2ccc(C#N)cc2)nc1C(=O)NS(C)(=O)=O` [Compound 153, 2-[N-[(5-bromo-2-pyridyl)methyl]-4-cyano-anilino]-5-methyl-N-methylsulfonyl-thiazole-4-carboxamide]: the EC50 is 100 nM in experiment [1] and 50.1 nM in experiment [2].

`Cc1sc(N(Cc2ccc(Br)c(F)c2)c2ccc(C#N)cc2)nc1C(=O)NS(C)(=O)=O` [Example 181, 2-[N-[(4-bromo-3-fluoro-phenyl)methyl]-4-cyano-anilino]-5-methyl-N-methylsulfonyl-thiazole-4-carboxamide]: the results for the EC50 in experiment [1] and in experiment [2] were 31.6 nM and 25.1 nM, respectively.

Consider `Cc1sc(N(Cc2ccc([S+]([O-])C(F)(F)F)cc2)c2ccc(C#N)cc2)nc1C(=O)NS(C)(=O)=O` (stereo not drawn) [Compound 419, 2-[4-cyano-N-[[4-(trifluoromethylsulfinyl)phenyl]methyl]anilino]-5-methyl-N-methylsulfonyl-thiazole-4-carboxamide], for which the EC50 is 63.1 nM in experiment [1] and 631 nM in experiment [2].

As to `CS(=O)(=O)NC(=O)c1nc(N(Cc2cccc(OC(F)(F)F)c2)c2ccc(C#N)cc2)sc1Br` [Example 252, 5-bromo-2-[4-cyano-N-[[3-(trifluoromethoxy)phenyl]methyl]anilino]-N-methylsulfonyl-thiazole-4-carboxamide], the EC50 in experiment [1] was 31.6 nM; in experiment [2], 79.4 nM.

Turning to `Cc1sc(N(CCc2ccc(F)cc2)c2ccc(C#N)cc2)nc1C(=O)NS(C)(=O)=O` [Compound 81, 2-[4-cyano-N-[2-(4-fluorophenyl)ethyl]anilino]-5-methyl-N-methylsulfonyl-thiazole-4-carboxamide], the EC50 in experiment [1] is 158 nM; in experiment [2] it was 1580 nM.

`Cc1sc(N(Cc2cccc3ccccc23)c2ccc(C#N)cc2)nc1C(=O)NS(C)(=O)=O` [Compound 68, 2-[4-cyano-N-(1-naphthylmethyl)anilino]-5-methyl-N-methylsulfonyl-thiazole-4-carboxamide]: the EC50 in experiment [1] is 50.1 nM; in experiment [2], 794 nM.

With `CCc1oc(N(Cc2ccc(OC(F)F)cc2)c2ccc(C#N)cc2)nc1C(=O)NS(C)(=O)=O` [Compound 634, 2-[4-cyano-N-[[4-(difluoromethoxy)phenyl]methyl]anilino]-5-ethyl-N-methylsulfonyl-oxazole-4-carboxamide], the EC50 was 39.8 nM in experiment [1] and 398 nM in experiment [2].

Regarding `Cc1sc(N(CCc2ccc(Cl)cc2)CC2CCCCC2)nc1C(=O)NS(C)(=O)=O` [Compound 697, 2-[2-(4-chlorophenyl)ethyl-(cyclohexylmethyl)amino]-5-methyl-N-methylsulfonyl-thiazole-4-carboxamide], the EC50 in experiment [1] was 251 nM; in experiment [2], greater than 10000 nM.

For the compound `COCCCOc1ccc(CN(c2ccc(C#N)cc2)c2nc(C(=O)NS(C)(=O)=O)c(C)s2)cc1` [Compound 582, 2-[4-cyano-N-[[4-(3-methoxypropoxy)phenyl]methyl]anilino]-5-methyl-N-methylsulfonyl-thiazole-4-carboxamide], the EC50 is 39.8 nM in experiment [1] and 794 nM in experiment [2].

Consider `Cc1sc(N(Cc2csc(C(F)(F)F)n2)c2ccc(C#N)cc2)nc1C(=O)NS(C)(=O)=O` [Compound 2, 2-[4-cyano-N-[[2-(trifluoromethyl)thiazol-4-yl]methyl]anilino]-5-methyl-N-methylsulfonyl-thiazole-4-carboxamide], for which the EC50 in experiment [1] and in experiment [2] was 100 nM in each case.

Regarding `Cc1sc(N(Cc2ccccc2)c2ccc(C#N)cc2F)nc1C(=O)NS(C)(=O)=O` [Compound 487, 2-(N-benzyl-4-cyano-2-fluoro-anilino)-5-methyl-N-methylsulfonyl-thiazole-4-carboxamide], the EC50 was 79.4 nM in experiment [1] and 158 nM in experiment [2].
